For the experiment, the target named is BfpR-His6 (Francisella tularensis, UniProt A0Q7V5). To be noted: 5 uM protein (printed 'Five micrometers'), 2X SYPRO Orange; heated to 95 °C.

Molecules are shown by their SMILES.

Chain of BfpR-His6 (A0Q7V5 1-229): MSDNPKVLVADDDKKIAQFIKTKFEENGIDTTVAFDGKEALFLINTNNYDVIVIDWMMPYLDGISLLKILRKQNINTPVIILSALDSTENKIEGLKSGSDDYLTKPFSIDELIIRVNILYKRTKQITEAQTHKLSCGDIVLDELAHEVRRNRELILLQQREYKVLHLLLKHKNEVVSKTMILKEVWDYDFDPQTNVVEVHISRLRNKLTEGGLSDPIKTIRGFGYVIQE

On to `COc1ccc(O)c2ccccc12` [walrycin A, 4-methoxy-1-naphthol], for which the thermal shift result was “a protein population not seen in the presence of the control compounds appears”.

(Values after article PMC7082314 (Frontiers in Cellular and Infection Microbiology, 2020).)
